Test results taken from ChEMBL document CHEMBL1131493, “Inhibitors of farnesyl protein transferase. 4-Amido, 4-carbamoyl, and 4-carboxamido derivatives of 1-(8-chloro-6,11-dihydro-5H-benzo[5,6]- cyclohepta[1,2-b]pyridin-11-yl)piperazine and 1-(3-bromo-8-chloro-6,11- dihydro-5H-benzo[5,6]cyclohepta[1,2-b]pyridin-11-yl)piperazine” (J Med Chem, 1998).

Assays:
[1] = target: T1, Protein farnesyltransferase (Homo sapiens, UniProt P49354+P49356); assay: In vitro inhibition of farnesyltransferase farnesylation of the H-ras oncogene; assay type: protein-complex assay; design: Inhibition: concentration or dose not given beside the values
[2] = target: T1, Protein farnesyltransferase; assay: Inhibition of Farnesyltransferase from Ras-CVLS or Ras-CVLL in Cos-7 monkey kidney cells; assay type: cell-based, Chlorocebus aethiops

Compound	Inhibition [1] [%]	IC50 [2] [nM]	IC50 [1] [nM]
O=C(c1cccc2ncccc12)N1CCN(C2c3ccc(Cl)cc3CCc3cc(Br)cnc32)CC1 (stereo unspecified)	38	–	–
CC(=O)N1CCC(C(=O)N2CCN([C@H]3c4ccc(Cl)cc4CCc4cccnc43)CC2)CC1	–	6500	1800
CN1CCCC(C(=O)N2CCN(C3c4ccc(Cl)cc4CCc4cccnc43)CC2)C1 (stereo unspecified)	–	–	6800
N[C@@H](CS)C(=O)N1CCC(CC(=O)N2CCN(C3c4ccc(Cl)cc4CCc4cc(Br)cnc43)CC2)CC1 (stereo partly specified)	–	–	230
CC(C)(C)OC(=O)N1CCC(CC(=O)N2CCN(C3c4ccc(Cl)cc4CCc4cc(Br)cnc43)CC2)CC1 (stereo unspecified)	–	–	1290
O=C(CC1CCNCC1)N1CCN(C2c3ccc(Cl)cc3CCc3cccnc32)CC1 (stereo unspecified)	–	–	1250
O=C(N1CCN(C2c3ccc(Cl)cc3CCc3cc(Br)cnc32)CC1)n1ccnc1 (stereo unspecified)	–	–	1770
CN1CCCC(CC(=O)N2CCN([C@H]3c4ccc(Cl)cc4CCc4cccnc43)CC2)C1 (stereo partly specified)	–	–	600
O=C(Cc1ccncc1)NCCNC1c2ccc(Cl)cc2CCc2cccnc21 (stereo unspecified)	–	–	25800
O=C(N1CCN(C2c3ccc(Cl)cc3CCc3cccnc32)CC1)n1ccnc1 (stereo unspecified)	–	–	9800
COCC[C@H]1CN(C2c3ccc(Cl)cc3CCc3cc(Br)cnc32)CCN1C(=O)CC1CCN(C(N)=O)CC1 (stereo partly specified)	–	1700	92
CC(C)(C)NC(=O)N1CCC(CC(=O)N2CCN(C3c4ccc(Cl)cc4CCc4cccnc43)CC2)CC1 (stereo unspecified)	–	–	1000
CC(=O)N1CCCC(CC(=O)N2CCN(C3c4ccc(Cl)cc4CCc4cccnc43)CC2)C1 (stereo unspecified)	–	–	3100
O=C(Cc1cc[n+]([O-])cc1)N1CCN(C2c3ccc(Cl)cc3CCc3cccnc32)CC1 (stereo unspecified)	–	–	740
CC(=O)N1CCC(CC(=O)N2CCN(C3c4ccc(Cl)cc4CCc4cccnc43)CC2)CC1 (stereo unspecified)	–	2700	870
CC(C)(C(=O)N1CCN(C2c3ccc(Cl)cc3CCc3cccnc32)CC1)c1ccc[n+]([O-])c1 (stereo unspecified)	–	–	1260
CCN1CCC(CC(=O)N2CCN(C3c4ccc(Cl)cc4CCc4cccnc43)CC2)CC1 (stereo unspecified)	–	–	1270
CSCC[C@H](N)C(=O)N1CCC(CC(=O)N2CCN(C3c4ccc(Cl)cc4CCc4cccnc43)CC2)CC1 (stereo partly specified)	–	–	1890
O=C(Oc1cccnc1)N1CCN([C@H]2c3ccc(Cl)cc3CCc3cccnc32)CC1	–	3900	820
CC(C)(C(=O)N1CCN(C2c3ccc(Cl)cc3CCc3cccnc32)CC1)c1ccncc1 (stereo unspecified)	–	–	1740
O=C(c1cccc2cccnc12)N1CCN(C2c3ccc(Cl)cc3CCc3cc(Br)cnc32)CC1 (stereo unspecified)	–	–	1800
CN(C)c1ccc(C(=O)N2CCN(C3c4ccc(Cl)cc4CCc4cccnc43)CC2)cc1 (stereo unspecified)	–	–	20200
CN1CCCC(CC(=O)N2CCN(C3c4ccc(Cl)cc4CCc4cccnc43)CC2)C1 (stereo unspecified)	–	2400	1190

Compound	Inhibition [1] [%]	IC50 [2] [nM]	IC50 [1] [nM]
NC(=O)N1CCCC2C(C(=O)N3CCN(C4c5ccc(Cl)cc5CCc5cc(Br)cnc54)CC3)CCCC21 (stereo unspecified)	–	–	1400
O=C(Oc1ccccc1)N1CCN(C2c3ccc(Cl)cc3C=Cc3cccnc32)CC1 (stereo unspecified)	–	–	880
CCCC[C@H]1CN(C2c3ccc(Cl)cc3CCc3cc(Br)cnc32)CCN1C(=O)CC1CCN(C(N)=O)CC1 (stereo partly specified)	–	600	27
CN1CCC(CC(=O)N2CCN([C@H]3c4ccc(Cl)cc4CCc4cccnc43)CC2)CC1	–	–	640
CC(=O)N1CCCC(C(=O)N2CCN(C3c4ccc(Cl)cc4CCc4cccnc43)CC2)C1 (stereo unspecified)	–	–	4300
O=C(Nc1cc[n+]([O-])cc1)N1CCN(C2c3ccc(Cl)cc3CCc3cccnc32)CC1 (stereo unspecified)	–	–	1800
CN1CCCC(NC(=O)N2CCN(C3c4ccc(Cl)cc4CCc4cc(Br)cnc43)CC2)C1 (stereo unspecified)	–	–	54
O=C(CC1CCCNC1)N1CCN(C2c3ccc(Cl)cc3CCc3cccnc32)CC1 (stereo unspecified)	–	–	1100
NCNC(=O)N1CCC(CC(=O)N2CCN(C3c4ccc(Cl)cc4CCc4cccnc43)CC2)CC1 (stereo unspecified)	–	–	2500
O=C(Nc1cccnc1)N1CCN([C@H]2c3ccc(Cl)cc3CCc3cccnc32)CC1	–	7300	460
O=C(c1cccc2c1ccc[n+]2[O-])N1CCN(C2c3ccc(Cl)cc3CCc3cc(Br)cnc32)CC1 (stereo unspecified)	38	–	–
O=C(Oc1cccnc1)N1CCN([C@@H]2c3ccc(Cl)cc3CCc3cccnc32)CC1	–	6900	1280
CC(=O)N1CCC(CC(=O)N2CCN([C@H]3c4ccc(Cl)cc4CCc4cccnc43)CC2)CC1	–	6200	1600
CN1CCCC(OC(=O)N2CCN(C3c4ccc(Cl)cc4CCc4cccnc43)CC2)C1 (stereo unspecified)	–	–	2100
CC(S)C(=O)NCC(=O)N1CCN(C2c3ccc(Cl)cc3CCc3cccnc32)CC1 (stereo unspecified)	–	–	2780
CC(C)(C)OC(=O)NCC(=O)N1CCN(C2c3ccc(Cl)cc3CCc3cccnc32)CC1 (stereo unspecified)	–	–	4800
O=C(Nc1cc[n+]([O-])cc1)N1CCN(C2c3ccc(Cl)cc3CCc3cc(Br)cnc32)CC1 (stereo unspecified)	–	5800	210
O=C(NCc1ccccc1)N1CCN(C2c3ccc(Cl)cc3CCc3cccnc32)CC1 (stereo unspecified)	–	–	4100
O=C(Oc1ccccc1)N1CCN(C2c3ccc(Cl)cc3CCc3cccnc32)CC1 (stereo unspecified)	–	–	800
O=C(Nc1ccc[n+]([O-])c1)N1CCN(C2c3ccc(Cl)cc3CCc3cc(Br)cnc32)CC1 (stereo unspecified)	–	3600	240
O=C(Cc1ccccc1)N1CCN(C2c3ccc(Cl)cc3CCc3cccnc32)CC1 (stereo unspecified)	–	12000	–
CN1CCCC(OC(=O)N2CCN(C3c4ccc(Cl)cc4CCc4cc(Br)cnc43)CC2)C1 (stereo unspecified)	–	–	300
CN1CCC(NC(=O)N2CCN(C3c4ccc(Cl)cc4CCc4cccnc43)CC2)CC1 (stereo unspecified)	–	–	470

Compound	Inhibition [1] [%]	IC50 [2] [nM]	IC50 [1] [nM]
O=C(CC1CCNCC1)N1CCN([C@H]2c3ccc(Cl)cc3CCc3cc(Br)cnc32)CC1	–	–	78
O=C(Oc1ccc[n+]([O-])c1)N1CCN(C2c3ccc(Cl)cc3CCc3cccnc32)CC1 (stereo unspecified)	–	–	3100
N[C@@H](CO)C(=O)N1CCC(CC(=O)N2CCN(C3c4ccc(Cl)cc4CCc4cccnc43)CC2)CC1 (stereo partly specified)	–	–	1100
CNC(=O)N1CCC[C@@H](CC(=O)N2CCN(C3c4ccc(Cl)cc4CCc4cccnc43)CC2)C1 (stereo partly specified)	–	–	7000
CC(C)(C)OC(=O)N1CCC(CC(=O)N2CCN(C3c4ccc(Cl)cc4CCc4cccnc43)CC2)CC1 (stereo unspecified)	–	–	7400
CC(C)(C(=O)N1CCN(C2c3ccc(Cl)cc3CCc3cc(Br)cnc32)CC1)c1cc[n+]([O-])cc1 (stereo unspecified)	–	5000	390
O=C(Nc1cccnc1)N1CCN([C@@H]2c3ccc(Cl)cc3CCc3cccnc32)CC1	–	–	3200
CN1CCC(OC(=O)N2CCN(C3c4ccc(Cl)cc4CCc4cccnc43)CC2)CC1 (stereo unspecified)	35	–	–
NC(=O)N1CCCC(CC(=O)N2CCN(C3c4ccc(Cl)cc4CCc4cccnc43)CC2)C1 (stereo unspecified)	–	–	1750
CNC(=S)N1CCC(CC(=O)N2CCN(C3c4ccc(Cl)cc4CCc4cccnc43)CC2)CC1 (stereo unspecified)	–	–	880
O=C(Nc1ccc[n+]([O-])c1)N1CCN(C2c3ccc(Cl)cc3CCc3cccnc32)CC1 (stereo unspecified)	–	–	2200
O=C(C1CCNCC1)N1CCN(C2c3ccc(Cl)cc3CCc3cccnc32)CC1 (stereo unspecified)	–	–	11300
O=C(c1cccc2ncccc12)N1CCN(C2c3ccc(Cl)cc3CCc3cccnc32)CC1 (stereo unspecified)	15	–	–
CC(C(=O)N1CCN(C2c3ccc(Cl)cc3CCc3cccnc32)CC1)c1cccnc1 (stereo unspecified)	–	–	4900
N[C@@H](CS)C(=O)N1CCN(C2c3ccc(Cl)cc3CCc3cc(Br)cnc32)CC1 (stereo partly specified)	–	–	2100
CC(C)(C(=O)N1CCN(C2c3ccc(Cl)cc3CCc3cccnc32)CC1)c1cc[n+]([O-])cc1 (stereo unspecified)	–	–	2200
O=C(C1CCCC2NCCCC21)N1CCN(C2c3ccc(Cl)cc3CCc3cc(Br)cnc32)CC1 (stereo unspecified)	23	–	–
CCCNC(=O)N1CCC(CC(=O)N2CCN(C3c4ccc(Cl)cc4CCc4cccnc43)CC2)CC1 (stereo unspecified)	–	–	880
CC(C)(C)NC(=O)N1CCC(CC(=O)N2CCN(C3c4ccc(Cl)cc4CCc4cc(Br)cnc43)CC2)CC1 (stereo unspecified)	–	–	108
CC(=O)N1CCC(C(=O)N2CCN([C@@H]3c4ccc(Cl)cc4CCc4cccnc43)CC2)CC1	–	–	4100
CN1CCCC(NC(=O)N2CCN(C3c4ccc(Cl)cc4CCc4cccnc43)CC2)C1 (stereo unspecified)	–	–	660
CC(C)(C)OC(=O)N1CCC(C(=O)N2CCN(C3c4ccc(Cl)cc4CCc4cccnc43)CC2)CC1 (stereo unspecified)	20	–	–
CC(=O)N1CCC(CC(=O)N2CCN([C@@H]3c4ccc(Cl)cc4CCc4cccnc43)CC2)CC1	–	–	3500

Compound	Inhibition [1] [%]	IC50 [2] [nM]	IC50 [1] [nM]
O=C(Cc1cccnc1)N1CCN(C(c2ccncc2)c2ccc(Cl)cc2)CC1 (stereo unspecified)	–	–	48000
CC(C)(C(=O)N1CCN(C2c3ccc(Cl)cc3CCc3cccnc32)CC1)c1cccnc1 (stereo unspecified)	–	6100	–
CN1CCCC(CC(=O)N2CCN([C@@H]3c4ccc(Cl)cc4CCc4cccnc43)CC2)C1 (stereo partly specified)	–	–	700
O=C(CC1CCNCC1)N1CCN(C2c3ccc(Cl)cc3C=Cc3cc(Br)cnc32)CC1 (stereo unspecified)	–	–	83
NC(=O)N1CCC(CC(=O)N2CCN(C3c4ccc(Cl)cc4CCc4cccnc43)CC2)CC1 (stereo unspecified)	–	–	820
CCNC(=O)N1CCC(CC(=O)N2CCN(C3c4ccc(Cl)cc4CCc4cccnc43)CC2)CC1 (stereo unspecified)	–	–	920
COC(=O)N1CCCC(CC(=O)N2CCN(C3c4ccc(Cl)cc4CCc4cccnc43)CC2)C1 (stereo unspecified)	–	–	7000
CN1CCC(CC(=O)N2CCN([C@@H]3c4ccc(Cl)cc4CCc4cccnc43)CC2)CC1	–	–	1800
CNC(=O)N1CCC(CC(=O)N2CCN(C3c4ccc(Cl)cc4CCc4cccnc43)CC2)CC1 (stereo unspecified)	–	–	1050
Clc1ccc2c(c1)CCc1cccnc1C2N1CCN(CCc2cccnc2)CC1 (stereo unspecified)	23	–	–
COC(=O)N1CCC(CC(=O)N2CCN(C3c4ccc(Cl)cc4CCc4cccnc43)CC2)CC1 (stereo unspecified)	–	–	1300
Clc1ccc2c(c1)CCc1cccnc1C2N1CCNCC1 (stereo unspecified)	–	–	30300
NC(=O)N1CCC(CC(=O)N2CCN(C3c4ccc(Cl)cc4C=Cc4cc(Br)cnc43)CC2)CC1 (stereo unspecified)	–	–	45
O=C(Cc1cccnc1)N1CCN(C(=O)c2ccc(Cl)cc2)CC1	32	–	–
COCC[C@H]1CN(C2c3ccc(Cl)cc3CCc3cc(Br)cnc32)CCN1C(=O)CC1CCNCC1 (stereo partly specified)	–	–	69
NC(=O)N1CCCc2c(C(=O)N3CCN(C4c5ccc(Cl)cc5CCc5cc(Br)cnc54)CC3)cccc21 (stereo unspecified)	45	–	–
C[C@H](N)C(=O)N1CCC(CC(=O)N2CCN(C3c4ccc(Cl)cc4CCc4cccnc43)CC2)CC1 (stereo partly specified)	–	–	2500
O=C(Cc1cc[n+]([O-])cc1)N1CCN(C2c3ccc(Cl)cc3CCc3c(Cl)ccnc32)CC1 (stereo unspecified)	–	–	330
N[C@@H](CS)CN1CCN(C2c3ccc(Cl)cc3CCc3cc(Br)cnc32)CC1 (stereo partly specified)	19	–	–
CC(C)(C(=O)N1CCN(C2c3ccc(Cl)cc3CCc3cccnc32)CC1)c1ccccc1 (stereo unspecified)	–	–	3300
